Read-outs that look alike come from different tables or passages of the source.
Legend:
[1] = tested on: HEL and CrFK cell cultures; assay: Cytotoxicity; assay type: cell-based
[2] = tested on: Feline herpes virus; assay: organism not typed; assay type: cell-based; details: read-out: EC50 Feline herpes virus
[3] = tested on: HCV replicon (type 1b); details: read-out: EC50 HCV replicon, Huh 7 cells; cited from earlier work
[4] = tested on: Huh 7 cells; details: cited from earlier work
[5] = Cytotoxicity in HCV replicon assay, Huh 7 cells; assay type: cell-based; details: human, Huh 7 cells (HCV replicon type 1b)
[6] = tested on: human and feline herpes viruses; assay: organism not typed; assay type: cell-based; details: read-out: EC50 against human and feline herpes viruses
[7] = tested on: HIV-1 (X4LAI.04); assay: microbe, parasite or virus in culture; assay type: cell-based
[8] = biological target: T1, carboxypeptidase Y (Saccharomyces cerevisiae, UniProt P00729); assay: Carboxypeptidase Y-mediated cleavage monitored by 31P NMR; assay type: in vitro ADME; details: d6-acetone and Trizma buffer pH 7.6, room temperature
T1 sequence (P00729 112-532): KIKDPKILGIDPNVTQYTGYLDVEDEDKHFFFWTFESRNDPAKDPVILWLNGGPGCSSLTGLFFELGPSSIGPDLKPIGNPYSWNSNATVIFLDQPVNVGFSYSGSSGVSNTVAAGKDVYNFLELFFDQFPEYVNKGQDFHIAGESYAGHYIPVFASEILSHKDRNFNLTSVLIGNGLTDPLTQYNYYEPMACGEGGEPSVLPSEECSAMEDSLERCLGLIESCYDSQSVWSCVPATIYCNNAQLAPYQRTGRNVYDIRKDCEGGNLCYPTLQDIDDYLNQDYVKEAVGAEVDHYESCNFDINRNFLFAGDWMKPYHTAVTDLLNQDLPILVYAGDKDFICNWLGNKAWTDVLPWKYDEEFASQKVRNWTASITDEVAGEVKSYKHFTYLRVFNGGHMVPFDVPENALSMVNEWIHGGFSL

[9] = tested on: tumor cell lines; assay: Cytostatic activity, ranges over several tumor cell lines; assay type: cell-based
[10] = tested on: L1210 (mouse lymphocytic leukemia cells); assay type: cell-based; details: read-out: IC50 (50% inhibitory concentration), proliferation
[11] = tested on: CEM (human T-lymphocyte cells); assay type: cell-based; details: read-out: IC50 (50% inhibitory concentration), proliferation
[12] = tested on: HeLa (human cervical carcinoma cells); assay type: cell-based; details: read-out: IC50 (50% inhibitory concentration), proliferation
[13] = tested on: HeLa/TK− cells; assay type: cell-based, human; details: read-out: IC50 (50% inhibitory concentration), proliferation
[14] = tested on: Herpes simplex virus 1(KOS); assay type: cell-based, herpes simplex virus type 1; details: read-out: EC50 Herpes simplex virus 1(KOS)
[15] = tested on: Herpes simplex virus 2 (G); assay type: cell-based, herpes simplex virus type 2; details: read-out: EC50 Herpes simplex virus 2 (G)
[16] = tested on: Herpes simplex virus 1TK−(KOS)ACVr; assay type: cell-based, herpes simplex virus type 1; details: read-out: EC50 Herpes simplex virus 1TK−(KOS)ACVr
[17] = tested on: HIV-1 and HIV-2; assay type: cell-based
[18] = tested on: HCV replicon (type 1b); assay: HCV replicon assay; assay type: cell-based; details: L-alanine vs D-alanine derivative
[19] = tested on: HIV-1(IIIB); assay type: cell-based
[20] = tested on: HIV-2(ROD); assay type: cell-based
[21] = read-out: IC50, range over all tested tumor cell lines
[22] = read-out: IC50, range over cell lines

Compound: COC(=O)[C@H](C)NP(=O)(N[C@@H](C)C(=O)OC)OC[C@H]1O[C@@H](n2cnc(C(N)=O)c2N)[C@H](O)[C@@H]1O [Compound 39, acadesine-5′-O-bis(methoxy-L-alaninyl)-phosphate]
- MCC (cytotoxicity) [1]: >100 µM
- EC50 [2]: > 100 µM

Compound: Nc1nc2c(ncn2COCCO)c(=O)[nH]1 [Compound 10, acyclovir, reference compound]
- MCC (cytotoxicity) [1]: >100 µM
- EC50 [2]: > 100 µM
- EC50 [3]: 30 µM
- CC50 [4]: > 30 µM

Compound: C[C@H](NP(=O)(N[C@@H](C)C(=O)OCc1ccccc1)OC[C@H]1O[C@@H](n2cnc(C(N)=O)n2)[C@H](O)[C@@H]1O)C(=O)OCc1ccccc1 [Compound 30, ribavirin-5′-O-bis(benzoxy-L-alaninyl)-phoshate]
- CC50 [5]: > 100 µM

Compound: NC(=O)c1ncn([C@@H]2O[C@H](CO)[C@@H](O)[C@H]2O)c1N [Compound 13, acadesine, reference compound]
- MCC (cytotoxicity) [1]: >100 µM
- EC50 [2]: > 100 µM
- EC50 [6]: > 100 µM

Compound: NC(=O)c1ncn([C@@H]2O[C@H](CO)[C@@H](O)[C@H]2O)n1 [Compound 9, ribavirin]
- EC50 [3]: 87 µM
- CC50 [4]: > 100 µM

Compound: C[C@H](NP(=O)(N[C@@H](C)C(=O)OCc1ccccc1)OCCOCn1cnc2c(=O)[nH]c(N)nc21)C(=O)OCc1ccccc1 [Compound 32, acyclovir-5′-O-bis[(benzoxy-L-alaninyl)]-phosphate]
- boost in activity compared to ACV, HIV-1 [7]: > 60 fold
- EC50 ([7]; Human immunodeficiency virus 1, MT4, 72 h, read-out: EC50 HIV-1): 2 to 4 µM
- MCC (cytotoxicity) [1]: >100 µM
- EC50 [2]: > 100 µM
- time to full conversion into metabolite [8]: 7.5 h

Compound: Nc1ccn([C@@H]2CS[C@H](CO)O2)c(=O)n1 [Compound 5, lamivudine, reference compound]
- IC50 [9, 21]: > 250 µM

Compound: acadesine-5′-O-bis(2,2-dimethylpentoxy-L-alaninyl)-phosphate [Compound 40]
- IC50 [10]: > 250 µM
- IC50 [11]: > 250 µM
- IC50 [12]: > 250 µM
- IC50 [13]: > 250 µM
- MCC (cytotoxicity) [1]: >100 µM
- EC50 [14]: > 100 µM
- EC50 [15]: > 100 µM
- EC50 [16]: > 100 µM
- EC50 [2]: > 100 µM

Compound: C[C@H](NP(=O)(N[C@@H](C)C(=O)OCC(C)(C)C)OC[C@@H]1C=C[C@H](n2cnc3c(NC4CC4)nc(N)nc32)C1)C(=O)OCC(C)(C)C [Compound 35, abacavir-5′-O-bis-(2,2-dimethylpropoxy-L-alaninyl)-phosphate]
- IC50 [9, 22]: 19 to 54 µM

Compound: C[C@H](NP(=O)(N[C@@H](C)C(=O)OCC(C)(C)C)OCCOCn1cnc2c(=O)[nH]c(N)nc21)C(=O)OCC(C)(C)C [Compound 33, acyclovir-5′-O-bis[(2,2-dimethylpropoxy-L-alaninyl)]-phosphate]
- boost in activity compared to ACV, HIV-1 [7]: > 60 fold
- MCC (cytotoxicity) [1]: >100 µM
- EC50 [2]: > 100 µM

Compound: [N-]=[N+]=N[C@]1(CO)O[C@@H](n2ccc(=O)[nH]c2=O)[C@H](O)[C@@H]1O [Compound 7, 4′-azidouridine]
- EC50 [3]: > 100 µM
- CC50 [4]: > 100 µM

Compound: C[C@H](NP(=O)(N[C@@H](C)C(=O)OCc1ccccc1)OC[C@H]1O[C@@H](n2cnc(C(N)=O)c2N)[C@H](O)[C@@H]1O)C(=O)OCc1ccccc1 [Compound 38, acadesine-5′-O-bis(benzoxy-L-alaninyl)-phosphate]
- MCC (cytotoxicity) [1]: >100 µM
- EC50 [2]: > 100 µM

Compound: [N-]=[N+]=N[C@]1(CO)O[C@@H](n2ccc(N)nc2=O)[C@H](O)[C@@H]1O [Compound 8, 4′-azidocytidine]
- EC50 [3]: 7.13 µM
- CC50 [4]: > 100 µM

Compound: Cc1cn([C@H]2C[C@H](N=[N+]=[N-])[C@@H](COP(=O)(N[C@@H](C)C(=O)OCc3ccccc3)N[C@@H](C)C(=O)OCc3ccccc3)O2)c(=O)[nH]c1=O [Compound 20, 3′-azido-3′-deoxythymidine-5′-O-bis(benzoxy-L-alaninyl)-phosphate]
- anti-HIV activity compared to the parent [17]: equipotent to the parent

Compound: C[C@H](NP(=O)(N[C@@H](C)C(=O)OCc1ccccc1)OC[C@H]1O[C@@H](n2ccc(N)nc2=O)CS1)C(=O)OCc1ccccc1 [Compound 25, 3TC-5′-O-bis(benzoxy-L-alaninyl)-phosphate]
- IC50 [9, 21]: 38 to 116 µM

Compound: C[C@H](NP(=O)(N[C@@H](C)C(=O)OCc1ccccc1)OC[C@@H]1C=C[C@H](n2cnc3c(NC4CC4)nc(N)nc32)C1)C(=O)OCc1ccccc1 [Compound 34, abacavir-5′-O-bis(benzoxy-L-alaninyl)-phosphate]
- IC50 [9, 22]: 19 to 54 µM

Compound: CCOc1nc(N)nc2c1ncn2[C@@H]1O[C@H](COP(=O)(N[C@@H](C)C(=O)OCC(C)(C)C)N[C@@H](C)C(=O)OCC(C)(C)C)[C@@H](O)[C@@]1(C)F [Compound 14, (2R,3R,4R,5R)-5-(2-amino-6-ethoxy-9H-purin-9-yl)-4-fluoro-2-(hydroxymethyl)-4-methyltetrahydrofuran-3-ol-5′-O-bis-(2,2-dimethylpropoxy-L-alaninyl)-phosphate]
- improved anti-HCV activity compared to 15 [18]: 4 fold

Compound: CCCCCc1ccc(-c2cc3cn([C@H]4C[C@H](O)[C@@H](COP(=O)(N[C@@H](C)C(=O)OCc5ccccc5)N[C@@H](C)C(=O)OCc5ccccc5)O4)c(=O)nc3o2)cc1 [Compound 36, 3-(2′-deoxy-β-D-ribofuranosyl)-6-(4-n-pentylphenyl)-2,3-dihydrofuro-[2,3-d]pyrimidin-2-one-5′-O-bis-(benzoxy-L-alaninyl)-phosphate]
- EC50 [2]: > 100 µM
- EC50 [6]: > 100 µM

Compound: C[C@H](NP(=O)(N[C@@H](C)C(=O)OCC(C)(C)C)OC[C@@H]1CC[C@H](n2cnc3c(N)ncnc32)O1)C(=O)OCC(C)(C)C [Compound 19, ddA-5′-O-bis-(2,2-dimethylpropoxy-L-alaninyl)-phosphate]
- boost of activity compared to parent nucleoside, HIV-1 [19]: 72 fold
- boost of activity compared to parent nucleoside, HIV-2 [20]: 57 fold
- IC50 [9, 22]: 35 to 76 µM

— paper PMC4358806 (European Journal of Medicinal Chemistry, 2013)
